Entries after “also recorded” stand apart in the source; their conditions may differ. Counter-ions that a name gives are not always drawn.
Test system: autophagy flux (LC3-II) in Huh7 cell line
Experiment: Autophagy flux, LC3-II immunoblot with/without Bafilomycin, Huh7 cell line
Assay type: cell-based
Conditions: 4 hours and 24 hours of treatment
Procedure: Since compound 2-3 induced an inhibition of the proteolytic activity of cathepsins B, D and/or L (see example 1) supporting an inhibition of some lysosomal functions which can affect the cellular autophagy flux, the capacity of compound 2-3 to modulate the cellular autophagy processes and functions was evaluated in two Hepatocellular carcinoma (HCC) cell lines: Huh7 and HepG2. For this purpose, the accumulation of LC3-II (Light Chain 3 phosphatidylethanolamine conjugate) in presence or absence of compound 2-3 was analyzed using immunoblot analysis of LC3-II.
The HepG2 cell line was maintained in DMEM low glucose (Cat #21885025, ThermoFischer) containing 1% penicillin-streptomycin (Cat #P06-07100, Dutscher) and 10% FBS (Cat #SV30160.03C, Dutscher). The Huh7 cell line was maintained in DMEM high glucose (Cat #L0103-500, Dutscher) containing 1% penicillin-streptomycin (Cat #P06-07100, Dutscher) and 10% SVF (Cat #SV30160.03C, Dutscher). Cells lines were cultured at 37° C. with 5% CO2.
The day before the experiment, 6-well plates with 250,000 cells for HepG2 and 310,000 cells for Huh7 in 1.8 mL of medium per well were prepared. […]
After 4 hours and 24 hours of cells treatment, the medium was removed from each well. […] Total protein concentration was assessed using the BCA reagent (Cat #23227, ThermoFischer) and cellular lysates were stored at −80° C. until western-blot analysis. […]

CC(C)(C)NC1CCN(c2cc(NCc3ccc(Cl)cc3)nc3ccccc23)CC1 [2-3, 2-(4-chlorobenzylamino)-4-(4-tert-butylaminopiperidin-1-yl)-quinoline Hydrochloride Salt]
accumulation of the LC3-II form: significantly induced, in a dose-dependent manner, an accumulation of the LC3-II form | autophagy flux (LC3-II Baf+/Baf− ratio) (Hydrochloride Salt): inhibition; also recorded: inhibitor of the autophagy flux

From patent publication US11261189B2, “Substituted 2,4 diamino-quinoline as new medicament for fibrosis, autophagy and cathepsins B (CTSB), L (CTSL) and D (CTSD) related diseases” (Genoscience Pharma, priority 2018, dated 2022)
